Test results taken from US10654834B2 (Venenum Biodesign, LLC, priority 2016, dated 2020).
Read-outs that look alike come from different tables or passages of the source.

Legend:
Format in all cases: in vivo, mouse
[1] = Plasma concentration of compound in lean C57BL/6N mice after OGTT; details: 6 h after 30 mg/kg + sitagliptin 3 mg/kg
Protocol: In these studies, the plasma concentration of the compounds of the present invention was measured in DIO mice as well as lean C57BL/6N mice.
In the second study (data represented in FIG. 11), plasma concentration levels were measured in lean mice after an OGTT experiment described in Example 84. The blood was collected via cardiac puncture 6 hours post compound dosing (and 2 hours after the 2 g/kg glucose bolus). The blood samples (?250 μL) were placed in an EDTA K^2+ tube and plasma was processed for analytical chemistry and analyzed by LCMS/MS method as described in Example 81. FIG. 11 depicts low levels of Compound 268 following OGTT in lean C57BL/6N mice, 6 hours after treatment with 30 mg/kg in combination with 3 mg/kg sitagliptin.

[2] = Bile weight after chronic dosing (5 days) in DIO mice; details: 30 mg/kg + sitagliptin 10 mg/kg, after second and tenth treatment, versus sitagliptin alone
Protocol: Bile Weight after Chronic Dosing of Compounds
In this study, chronic dosing of compounds of the present invention was examined to determine if they lead to an increase in bile weight.
FIG. 13 depicts the time course of bile weight changes over time (i.e., 0, 3, 6, 9, and 12 hours) after the second and the tenth treatment with Compound 268 using the protocol in Example 87.

[3] = Comparison of PK in DIO mice and lean mice; details: for Cmax / AUC(0-t) / Tmax: mouse, plasma; for AUC(0-t): read-out: AUC (0→4 h)
Protocol: Comparison of PK in DIO Mice and Lean Mice
The PK characteristics of Compound 268 were examined in non-fasted lean C57BL/6N and DIO mice (Taconic). Compound 268 was orally administered to both groups at 10 mg/kg by oral gavage and plasma concentration of the compound was determined as described in Example 81.
In addition, PK parameters were determined for Compound 268 (i.e., Cmax, Tmax, and AUC) following oral administration in four groups of mice: (i) fasted lean mice; (ii) non-fasted lean mice; (iii) non-fasted DIO mice; and (iv) lean mice receiving ABT.
The ABT treatment confirms that the low Cmax value of Compound 268 is attributed to […].

GLP-1 = GLP-1 levels after 6 weeks of dosing in DIO mice; details: 30 mg/kg + sitagliptin 10 mg/kg BID, 6 h after final dose, versus sitagliptin alone
Description: In the next series of studies (Examples 93-99), Male DIO mice were received at 12 weeks of age (from Taconic), and were single-housed at the testing facility and acclimated for at least 2 weeks. The mice were provided a high fat diet [Research Diet D12492 (60% Fat kcal)] while in the testing facility. Before the study initiation, the animals were randomized into 5 experimental groups by body weight. The vehicle group contained only 0.5% carboxymethylcellulose (medium viscosity)+0.25% Tween-80. The second group contained 10 mg/kg of the DPP-IV inhibitor Sitagliptin while the third group contained 30 mg/kg Compound 268. The fourth group contained the combination of 10 mg/kg Sitagliptin and 30 mg/kg Compound 268. The fifth group was the positive control for weight loss, Rimonabant. All mice were dosed BID at approximately 6:00 am and again at approximately 4:00 pm. The positive control rimonabant was administered at a dose of 10 mg/kg in the afternoon and the morning dosing was vehicle (no compound). […]
Compounds of the present invention were dosed for multiple weeks and were evaluated to determine if they produce sustained GLP-1 levels.
In this example, the protocol from Example 93 was utilized. […] The active form of GLP-1 [GLP-1 (7-36) amide] was analyzed using Meso Scale Discovery System according to the manufacturer's directions (item number K150HYC). […]

[4] = Bile weight after 6 weeks of dosing in DIO mice; details: about 6 h after final dose
Description: In the next series of studies (Examples 93-99), Male DIO mice were received at 12 weeks of age (from Taconic), and were single-housed at the testing facility and acclimated for at least 2 weeks. The mice were provided a high fat diet [Research Diet D12492 (60% Fat kcal)] while in the testing facility. Before the study initiation, the animals were randomized into 5 experimental groups by body weight. The vehicle group contained only 0.5% carboxymethylcellulose (medium viscosity)+0.25% Tween-80. The second group contained 10 mg/kg of the DPP-IV inhibitor Sitagliptin while the third group contained 30 mg/kg Compound 268. The fourth group contained the combination of 10 mg/kg Sitagliptin and 30 mg/kg Compound 268. The fifth group was the positive control for weight loss, Rimonabant. All mice were dosed BID at approximately 6:00 am and again at approximately 4:00 pm. The positive control rimonabant was administered at a dose of 10 mg/kg in the afternoon and the morning dosing was vehicle (no compound).
No Bile Weight Increase after 6 Weeks of Dosing Compounds
Compounds of the present invention were dosed for multiple weeks and were evaluated to determine if they lead to an increase in bile weight.
In this example, the protocol from Example 93 was utilized. […]

[5] = C57BL/6N, po, 10 mg/kg, Non-fasted DIO mice, oral (Table 58)
[6] = C57BL/6N, po, 10 mg/kg, Non-fasted Lean mice, oral (Table 58)
[7] = po, 10 mg/kg, Fasted Lean mice, oral (Table 58)
[8] = po, 10 mg/kg, lean mice receiving ABT (150 mg/kg), oral (Table 58)

plasma concentration of compound [1]: low levels | bile weight after chronic dosing [2]: no significant changes in bile weight | Cmax ([3]; C57BL/6N, po, 10 mg/kg, DIO mice, Non-fasted PK, p.o. (Table 57)): 0.6 nM | Cmax ([3]; C57BL/6N, po, 10 mg/kg, Lean mice, Non-fasted PK, p.o. (Table 57)): 2.1 nM | Cmax [3, 5]: 0.57 nM | AUC(0-t) [3, 5]: 0.76 ng·h/mL | Cmax [3, 6]: 2.1 nM | AUC(0-t) [3, 6]: 2.9 ng·h/mL | Tmax ([3]; C57BL/6N, po, DIO mice, Non-fasted PK, 10 mg/kg, p.o. (Table 57)): 60 min | Tmax ([3]; 10 mg/kg, Fasted Lean mice, oral (Table 58)): 15 min | Cmax [3, 7]: 12 nM | AUC(0-t) [3, 7]: 18 ng·h/mL | Cmax [3, 8]: 4.2 nM | AUC(0-t) [3, 8]: 5.1 ng·h/mL | Tmax ([3]; lean mice receiving ABT (150 mg/kg), oral (Table 58)): 30 min | Cmax profile in fasted lean, non-fasted lean, non-fasted DIO mice ([3]; oral administration): low Cmax profile | bile weight / gallbladder size after 6 weeks of dosing [4]: does not show an increase in size
Compound: N#Cc1ccc(CCNC(=O)[C@@H]2CCN2c2cc(N3CCC(CCNC(=O)NCCC(=O)O)CC3)nc(C(F)(F)F)n2)cc1 [Compound 268, (S)-3-(3-(2-(1-(6-(2-((4-cyanophenethyl)carbamoyl)azetidin-1-yl)-2-(trifluoromethyl)pyrimidin-4-yl)piperidin-4-yl)ethyl)ureido)propanoic acid]
plasma GLP-1 level after 6 weeks of dosing (GLP-1): significantly increased level of GLP-1
